Measurements from patent US11987588B2, “Modulators of the beta-3 adrenergic receptor useful for the treatment or prevention of heart failure and disorders related thereto” (Arena Pharmaceuticals, Inc., priority 2017, dated 2024).

molecular target: Beta-3 Adrenergic Receptor (Homo sapiens (Human), UniProt P13945); assay: Homogeneous Time-Resolved Fluorescence (HTRF) cAMP antagonist assay, IC50 determination; type: cell-based; settings: CHO-K1 cells stably expressing recombinant receptor, isoproterenol at EC90
Sequence (P13945 whole entry, species assumed): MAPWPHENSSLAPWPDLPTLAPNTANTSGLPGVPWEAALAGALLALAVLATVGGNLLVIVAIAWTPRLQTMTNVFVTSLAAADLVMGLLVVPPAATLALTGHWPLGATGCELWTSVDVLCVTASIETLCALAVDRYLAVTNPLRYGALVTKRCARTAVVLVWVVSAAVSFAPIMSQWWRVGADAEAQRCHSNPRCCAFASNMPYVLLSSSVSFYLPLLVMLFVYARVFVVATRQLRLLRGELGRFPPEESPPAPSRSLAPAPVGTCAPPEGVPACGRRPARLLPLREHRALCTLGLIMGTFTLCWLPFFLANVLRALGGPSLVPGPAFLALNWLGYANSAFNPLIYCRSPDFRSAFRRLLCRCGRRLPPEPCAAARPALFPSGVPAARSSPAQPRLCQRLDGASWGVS
Summary of the method: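 CHO-K1 cells stably expressing receptor, 1500 cells/well, preincubated briefly with 10-point 5-fold compound series (top final typically 10 or 100 μM) in PBS with 1 mM IBMX, then challenged with isoproterenol at EC90 for 1 h at room temperature. cAMP read by HTRF against on-plate standard curve; IC50 from dose-response.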

SMILES	IC50
CNS(=O)(=O)c1cccc(OC[C@@H](O)CNC2COC3(CCN(S(=O)(=O)c4cccc(-c5ccc(CNC(=O)CC(=O)O)cc5)c4)CC3)C2)c1 (stereo partly drawn) [Compound 352, 3-((3′-(3-((S)-2-hydroxy-3-(3-(N-methylsulfamoyl)phenoxy)propylamino)-1-oxa-8-azaspiro[4.5]decan-8-ylsulfonyl)biphenyl-4-yl)methylamino)-3-oxopropanoic acid]	167 nM
NS(=O)(=O)c1cccc(OC[C@@H](O)CN[C@H]2COC3(CCN(S(=O)(=O)c4cnc5ccccc5c4O)CC3)C2)c1 [Compound 548, 3-((S)-2-hydroxy-3-((R)-8-(4-hydroxyquinolin-3-ylsulfonyl)-1-oxa-8-azaspiro[4.5]decan-3-ylamino)propoxy)benzenesulfonamide]	14.3 nM
CNS(=O)(=O)c1cccc(OC[C@@H](O)CNC2COC3(CCN(S(=O)(=O)c4cc(Cl)c(Cl)s4)CC3)C2)c1 (stereo partly drawn) [Compound 178, 3-((2S)-3-(8-(4,5-dichlorothiophen-2-ylsulfonyl)-1-oxa-8-azaspiro[4.5]decan-3-ylamino)-2-hydroxypropoxy)-N-methylbenzenesulfonamide]	20.8 nM
CNS(=O)(=O)c1cccc(OC[C@@H](O)CNC2COC3(CCN(S(=O)(=O)c4cccc(-c5ccc(CNCCOC)cc5)c4)CC3)C2)c1 (stereo partly drawn) [Compound 340, 3-((2S)-2-hydroxy-3-(8-(4′-((2-methoxyethylamino)methyl)biphenyl-3-ylsulfonyl)-1-oxa-8-azaspiro[4.5]decan-3-ylamino)propoxy)-N-methylbenzenesulfonamide]	30.9 nM
CNS(=O)(=O)c1cccc(OC[C@@H](O)CNC2COC3(CCN(S(=O)(=O)c4cc5ccccc5o4)CC3)C2)c1 (stereo partly drawn) [Compound 326, 3-((2S)-3-(8-(benzofuran-2-ylsulfonyl)-1-oxa-8-azaspiro[4.5]decan-3-ylamino)-2-hydroxypropoxy)-N-methylbenzenesulfonamide]	11.7 nM
CNS(=O)(=O)c1cccc(OC[C@@H](O)CN[C@@H]2COC3(CCN(S(=O)(=O)c4cccc(-c5ccc(OCC#N)cc5)c4)CC3)C2)c1 [Compound 297, 3-((S)-3-((S)-8-(4′-(cyanomethoxy)biphenyl-3-ylsulfonyl)-1-oxa-8-azaspiro[4.5]decan-3-ylamino)-2-hydroxypropoxy)-N-methylbenzenesulfonamide]	15.9 nM
CNS(=O)(=O)c1cccc(OC[C@@H](O)CNC2COC3(CCN(S(=O)(=O)c4ccccc4C#N)CC3)C2)c1 (stereo partly drawn) [Compound 39, 3-((2S)-3-(8-(2-cyanophenylsulfonyl)-1-oxa-8-azaspiro[4.5]decan-3-ylamino)-2-hydroxypropoxy)-N-methylbenzenesulfonamide]	30.7 nM
CCCn1cc(-c2cccc(S(=O)(=O)N3CCC4(CC3)CC(NC[C@H](O)COc3cccc(S(=O)(=O)NC)c3)CO4)c2)cn1 (stereo partly drawn) [Compound 80, 3-((2S)-2-hydroxy-3-(8-(3-(1-propyl-1H-pyrazol-4-yl)phenylsulfonyl)-1-oxa-8-azaspiro[4.5]decan-3-ylamino)propoxy)-N-methylbenzenesulfonamide]	14.3 nM
CNS(=O)(=O)c1cccc(OC[C@@H](O)CNC2COC3(CCN(S(=O)(=O)c4cccc(-c5ccc(S(N)(=O)=O)cc5)c4)CC3)C2)c1 (stereo partly drawn) [Compound 85, 3′-(3-((S)-2-hydroxy-3-(3-(N-methylsulfamoyl)phenoxy)propylamino)-1-oxa-8-azaspiro[4.5]decan-8-ylsulfonyl)biphenyl-4-sulfonamide]	9.73 nM
NCCNS(=O)(=O)c1cccc(OC[C@@H](O)CNC2COC3(CCN(S(=O)(=O)c4ccc5ccccc5c4)CC3)C2)c1 (stereo partly drawn) [Compound 91, N-(2-aminoethyl)-3-((2S)-2-hydroxy-3-(8-(naphthalen-2-ylsulfonyl)-1-oxa-8-azaspiro[4.5]decan-3-ylamino)propoxy)benzenesulfonamide]	1120 nM
CCn1cc(S(=O)(=O)N2CCC3(CC2)C[C@@H](NC[C@H](O)COc2cccc(S(N)(=O)=O)c2)CO3)c(=O)c2ccc(F)cc21 [Compound 543, 3-((S)-3-((R)-8-(1-ethyl-7-fluoro-4-oxo-1,4-dihydroquinolin-3-ylsulfonyl)-1-oxa-8-azaspiro[4.5]decan-3-ylamino)-2-hydroxypropoxy)benzenesulfonamide]	66.7 nM
CNS(=O)(=O)c1cccc(OC[C@@H](O)CN[C@H]2COC3(CCN(S(=O)(=O)c4cnc5ccn(C)c5c4)CC3)C2)c1 [Compound 526, 3-((S)-2-hydroxy-3-((R)-8-(1-methyl-1H-pyrrolo[3,2-b]pyridin-6-ylsulfonyl)-1-oxa-8-azaspiro[4.5]decan-3-ylamino)propoxy)-N-methylbenzenesulfonamide]	6.97 nM
CN1CCOc2ncc(S(=O)(=O)N3CCC4(CC3)C[C@@H](NC[C@H](O)COc3cccc(S(=O)(=O)N[C@H]5CCCC[C@@H]5O)c3)CO4)cc21 [Compound 431, 3-((S)-2-hydroxy-3-((R)-8-(1-methyl-2,3-dihydro-1H-pyrido[2,3-b][1,4]oxazin-7-ylsulfonyl)-1-oxa-8-azaspiro[4.5]decan-3-ylamino)propoxy)-N-((1S,2S)-2-hydroxycyclohexyl)benzenesulfonamide]	1160 nM
NS(=O)(=O)c1cccc(OC[C@@H](O)CN[C@H]2COC3(CCN(S(=O)(=O)c4cnc5cc[nH]c5c4)CC3)C2)c1 [Compound 532, 3-((S)-3-((R)-8-(1H-pyrrolo[3,2-b]pyridin-6-ylsulfonyl)-1-oxa-8-azaspiro[4.5]decan-3-ylamino)-2-hydroxypropoxy)benzenesulfonamide]	12.7 nM
CNS(=O)(=O)c1cccc(OC[C@@H](O)CN[C@H]2COC3(CCN(S(=O)(=O)c4cnc5c(c4)N(C)CCO5)CC3)C2)c1 [Compound 414, 3-((S)-2-hydroxy-3-((R)-8-(1-methyl-2,3-dihydro-1H-pyrido[2,3-b][1,4]oxazin-7-ylsulfonyl)-1-oxa-8-azaspiro[4.5]decan-3-ylamino)propoxy)-N-methylbenzenesulfonamide]	16.8 nM
CNS(=O)(=O)c1cccc(OC[C@@H](O)CNC2COC3(CCN(S(=O)(=O)c4cccc(-c5cccnc5)c4)CC3)C2)c1 (stereo partly drawn) [Compound 88, 3-((2S)-2-hydroxy-3-(8-(3-(pyridin-3-yl)phenylsulfonyl)-1-oxa-8-azaspiro[4.5]decan-3-ylamino)propoxy)-N-methylbenzenesulfonamide]	9.82 nM
CNS(=O)(=O)c1cccc(OC[C@@H](O)CNC2COC3(CCN(S(=O)(=O)c4ccc5c(ccn5C)c4)CC3)C2)c1 (stereo partly drawn) [Compound 221, 3-((2S)-2-hydroxy-3-(8-(1-methyl-1H-indol-5-ylsulfonyl)-1-oxa-8-azaspiro[4.5]decan-3-ylamino)propoxy)-N-methylbenzenesulfonamide]	9.58 nM
CNS(=O)(=O)c1cccc(OC[C@@H](O)CNC2COC3(CCN(S(=O)(=O)c4cc(Br)ccc4C)CC3)C2)c1 (stereo partly drawn) [Compound 237, 3-((2S)-3-(8-(5-bromo-2-methylphenylsulfonyl)-1-oxa-8-azaspiro[4.5]decan-3-ylamino)-2-hydroxypropoxy)-N-methylbenzenesulfonamide]	42.8 nM
CNS(=O)(=O)c1cccc(OC[C@@H](O)CNC2COC3(CCN(S(=O)(=O)c4cnn(-c5ccccc5)c4C)CC3)C2)c1 (stereo partly drawn) [Compound 132, 3-((2S)-2-hydroxy-3-(8-(5-methyl-1-phenyl-1H-pyrazol-4-ylsulfonyl)-1-oxa-8-azaspiro[4.5]decan-3-ylamino)propoxy)-N-methylbenzenesulfonamide]	10.8 nM
CCn1cc(-c2cccc(S(=O)(=O)N3CCC4(CC3)C[C@H](NC[C@H](O)COc3cccc(S(=O)(=O)NC)c3)CO4)c2)cn1 [Compound 282, 3-((S)-3-((S)-8-(3-(1-ethyl-1H-pyrazol-4-yl)phenylsulfonyl)-1-oxa-8-azaspiro[4.5]decan-3-ylamino)-2-hydroxypropoxy)-N-methylbenzenesulfonamide]	15.5 nM
Cc1n[nH]c2ncc(S(=O)(=O)N3CCC4(CC3)C[C@@H](NC[C@H](O)COc3cccc(S(N)(=O)=O)c3)CO4)cc12 [Compound 564, 3-((S)-2-hydroxy-3-((R)-8-(3-methyl-1H-pyrazolo[3,4-b]pyridin-5-ylsulfonyl)-1-oxa-8-azaspiro[4.5]decan-3-ylamino)propoxy)benzenesulfonamide]	27 nM
CNS(=O)(=O)c1cccc(OC[C@@H](O)CN[C@H]2COC3(CCN(S(=O)(=O)c4cnc5nc(N)ccc5c4)CC3)C2)c1 [Compound 489, 3-((S)-3-((R)-8-(7-amino-1,8-naphthyridin-3-ylsulfonyl)-1-oxa-8-azaspiro[4.5]decan-3-ylamino)-2-hydroxypropoxy)-N-methylbenzenesulfonamide]	33.9 nM
CNS(=O)(=O)c1cccc(OC[C@@H](O)CN[C@@H]2COC3(CCN(S(=O)(=O)c4cccc(-c5ccc(S(N)(=O)=O)cc5)c4)CC3)C2)c1 [Compound 291, 3′-((S)-3-((S)-2-hydroxy-3-(3-(N-methylsulfamoyl)phenoxy)propylamino)-1-oxa-8-azaspiro[4.5]decan-8-ylsulfonyl)biphenyl-4-sulfonamide]	8.84 nM
CCOc1ccc(S(=O)(=O)N2CCC3(CC2)CC(NC[C@H](O)COc2cccc(S(=O)(=O)NC)c2)CO3)cc1 (stereo partly drawn) [Compound 136, 3-((2S)-3-(8-(4-ethoxyphenylsulfonyl)-1-oxa-8-azaspiro[4.5]decan-3-ylamino)-2-hydroxypropoxy)-N-methylbenzenesulfonamide]	23.5 nM
CNS(=O)(=O)c1cccc(OC[C@@H](O)CNC2COC3(CCN(S(=O)(=O)c4cccc(-c5ccncc5)c4)CC3)C2)c1 (stereo partly drawn) [Compound 106, 3-((2S)-2-hydroxy-3-(8-(3-(pyridin-4-yl)phenylsulfonyl)-1-oxa-8-azaspiro[4.5]decan-3-ylamino)propoxy)-N-methylbenzenesulfonamide]	13.3 nM
CNS(=O)(=O)c1cccc(OC[C@@H](O)CNC2COC3(CCN(S(=O)(=O)c4ccccc4-c4ccccc4)CC3)C2)c1 (stereo partly drawn) [Compound 174, 3-((2S)-3-(8-(biphenyl-2-ylsulfonyl)-1-oxa-8-azaspiro[4.5]decan-3-ylamino)-2-hydroxypropoxy)-N-methylbenzenesulfonamide]	125 nM
